In brackets after ≈: the same amount, converted by molar mass. Activity calls are given as the source filed them. The rule behind the calls is not given here.
Experiments:
[1] = biological target: T1, dTDP-4-dehydrorhamnose reductase (Mycobacterium tuberculosis) (UniProt P9WH09); assay: Inhibition of Mycobacterium tuberculosis RmlD assessed as inhibition of dTDP-beta-6-deoxy-L-lyxo-4-hexulose to dTDP-beta-L-rhamnose conversion at 10 ug/ml
T1 sequence (whole entry): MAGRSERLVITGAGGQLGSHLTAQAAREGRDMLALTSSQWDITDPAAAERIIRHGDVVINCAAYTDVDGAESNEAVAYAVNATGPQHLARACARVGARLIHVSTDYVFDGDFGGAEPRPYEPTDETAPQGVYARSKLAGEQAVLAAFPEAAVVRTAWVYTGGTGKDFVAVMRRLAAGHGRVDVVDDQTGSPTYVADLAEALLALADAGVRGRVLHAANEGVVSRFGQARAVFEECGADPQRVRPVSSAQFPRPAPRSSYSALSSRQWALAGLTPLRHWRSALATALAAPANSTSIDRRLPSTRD

[2] = biological target: T2, dTDP-4-dehydrorhamnose reductase (Mycobacterium tuberculosis, UniProt P9WH09); assay: Inhibition of Mycobacterium tuberculosis RmlD assessed as inhibition of dTDP-beta-6-deoxy-L-lyxo-4-hexulose to dTDP-beta-L-rhamnose conversion
T2 sequence (P9WH09 whole entry): T1 sequence (whole entry)

[3] = system: Mycobacterium tuberculosis; assay: Antimycobacterial activity against Mycobacterium tuberculosis H37Rv after 7 days by microbroth dilution-resazurin assay; assay type: functional; settings: 168 h

SMILES	inhibition [1]	IC50 [2] [µM]	MIC [3] [µg/mL]
Cc1cc(=O)oc2cc(O)c(O)cc12	inactive	–	–
C=Cc1c(C)c(O)cc2c1-c1ccc(O)c(C)c1CC2	inactive	–	–
COc1cc(/N=N/c2c(O)nc3ccccc3c2O)c(OC)cc1/N=N/c1ccccc1	inactive	–	–
Oc1ccc2c(O)c3ccccc3cc2c1O	inactive	–	–
CCC(c1ccccc1)C(CC)c1ccc(O)c(O)c1 (configuration not stated)	inactive	–	–
O=c1oc2c(cc1O)oc(=O)c1cc(O)c(O)c(O)c12	inactive	–	–
Cn1c(=O)c2nc(CNc3ccc(C(=O)O)cc3)[nH]c2n(C)c1=O	inactive	–	–
Oc1ccc(C(O)(c2ccccc2)c2ccc(O)c3ccccc23)c2ccccc12	inactive	–	–
O=c1ccc2c(-c3ccccc3O)c3ccc(O)cc3oc-2c1	inactive	–	–
O=C1C=CC=CC1=C1c2cc(O)c(O)cc2Oc2cc(O)c(O)cc21	–	2.1	133 (≈ 395 µM)
N#Cc1cnn2ccn([C@@H]3O[C@H](CO)[C@@H](O)[C@H]3O)c12	inactive	–	–
CC(c1cccc(O)c1)C(C)c1cccc(O)c1 (configuration not stated)	inactive	–	–
O=C(OCC(O)COC(=O)c1cccnc1)c1cccnc1	inactive	–	–
N=C(N)c1ccc(/C=C/c2ccc(C(=N)N)cc2O)cc1	inactive	–	–
CC(=O)OCc1cc(-c2nc3ccccc3nc2O)nn1-c1ccc(Cl)cc1	inactive	–	–
O=c1cc2oc3cc(O)c(O)cc3c(-c3ccccc3)c-2cc1O	–	0.9	200 (≈ 624 µM)
O=C1C(Cl)=C(Nc2ccc3c[nH]nc3c2)C(=O)c2ccccc21	inactive	–	–
COc1ccccc1/C=C/C(=O)/C=C/c1ccccc1O	inactive	–	–
Cc1c(Cl)cccc1Nc1ncccc1C(=O)OCC(O)CO (configuration not stated)	inactive	–	–
COc1cc(C(=O)C(=O)c2cc(OC)c(O)c(OC)c2)cc(OC)c1O	inactive	–	–
CCC(CC)C(c1ccc(O)cc1)c1ccc(O)cc1	inactive	–	–
O=C(O)/C=C/c1c2ccc(=O)c(O)c-2oc2c(O)c(O)ccc12	inactive	–	–
O=C(c1ccc(O)cc1)c1ccc(C(=O)c2ccc(O)cc2)cc1	inactive	–	–
O=C1C=C(c2ccccc2)OC(=O)C1C(=O)c1ccccc1 (configuration not stated)	inactive	–	–
O[C@@H]1[C@@H](OCc2ccccc2)OC[C@H](O)[C@@H]1O	inactive	–	–

SMILES	inhibition [1]	IC50 [2] [µM]	MIC [3] [µg/mL]
Cc1cc2c(cc1C)NC1=C(N2)OC(c2cccc(O)c2)C1=O (configuration not stated)	inactive	–	–
O=C1CC(c2ccccc2)c2ccc(O)cc2O1 (configuration not stated)	inactive	–	–
Oc1ccc(-c2ccc3ccccc3c2)cc1	inactive	–	–
CSc1ncc2ncn([C@@H]3O[C@H](CO)[C@@H](O)[C@H]3O)c2n1	inactive	–	–
CC(Cc1ccc(O)c(O)c1)C(C)Cc1ccc(O)c(O)c1 (configuration not stated)	inactive	–	–
Cc1cc(O)c2cc3c(O)c(O)ccc3cc2c1	inactive	–	–
C[C@@H]1O[C@@H](Oc2c(-c3cc(O)c(O)c(O)c3)oc3cc(O)cc(O)c3c2=O)[C@H](O)[C@H](O)[C@H]1O	inactive	–	–
C=Cc1cc(O)cc2c1-c1ccc(O)c(C)c1CC2 [EFFUSOL]	–	–	20 (≈ 79.3 µM)
Cc1ccc(NC(=O)Nc2cccnc2)cc1NC(=O)Nc1cccnc1	inactive	–	–
CCC(c1ccccc1)C(CC)c1cc(O)c(O)c(O)c1 (configuration not stated)	inactive	–	–
NC(=S)c1cn([C@@H]2O[C@H](CO)[C@@H](O)[C@H]2O)c2ncnc(N)c12	inactive	–	–
O=C(/C=C/c1ccc(O)c(O)c1)O[C@@H]1C[C@@](OC(=O)/C=C/c2ccc(O)c(O)c2)(C(=O)O)C[C@@H](O)[C@@H]1O	inactive	–	–
COc1ccc(OC)c(NC(=O)c2cc3oc4ccccc4c3cc2O)c1	inactive	–	–
Oc1cc(C(c2ccccc2)c2ccccc2)c2ccccc2c1O	inactive	–	–
COc1ccccc1NC(=O)c1cc2cc(Br)ccc2cc1O	inactive	–	–
COc1ccc(NC(=O)c2cc3ccc4c5ccccc5[nH]c4c3cc2O)cc1	inactive	–	–
Oc1ccc(C(c2ccc(O)cc2)c2ccc(O)cc2)cc1	inactive	–	–
NC(=O)CC[C@@H](C(=O)O)N1C(=O)c2ccc(O)cc2C1=O	inactive	–	–
O=C(/C=C/c1ccc2ccccc2n1)c1cc(Cl)ccc1O	inactive	–	–
COc1cccc2c1[C@H](CO)N1[C@H](C#N)[C@@H]3C[C@H](C(=O)O)[C@@H]([C@@H]1C2)N3C	inactive	–	–
CCC(c1ccc(O)cc1)C(CC)c1ccc(O)c(O)c1 (configuration not stated)	inactive	–	–
CC(=O)Oc1c(C)c(OC(C)=O)c2c(c1C(C)=O)OC1CC(=O)C(C(C)=O)=C(O)C21C (configuration not stated)	inactive	–	–
COc1cc(NC(=O)c2cc3ccccc3cc2O)c(OC)cc1Cl	inactive	–	–
Cc1c2cc(O)c(=O)cc-2oc2cc(O)c(O)cc12	–	15	62 (≈ 240 µM)

From ChEMBL document CHEMBL1938285, “Novel inhibitors of Mycobacterium tuberculosis dTDP-6-deoxy-L-lyxo-4-hexulose reductase (RmlD) identified by virtual screening” (Bioorg Med Chem Lett, 2011)
